Source: the NIST ThermoML archive (doi:10.1016/j.fluid.2006.01.030)

Experiment: xn = mol fraction of the nth substance listed
Conditions: Liquid

CCCCCCC [heptane] + CCO
viscosity [mPa·s]
Conditions	x2 = 0	x2 = 0.125	x2 = 0.25	x2 = 0.375	x2 = 0.5	x2 = 0.625	x2 = 0.75	x2 = 0.875
293.15 K, 100 kPa, Capillary tube (Ostwald / Ubbelohde) method	0.41	0.419	0.45	0.494	0.556	0.644	0.757	0.931
293.15 K, 20000 kPa, Falling or rolling sphere viscometry	0.509	0.518	0.547	0.597	0.668	0.76	0.885	1.052
293.15 K, 40000 kPa, Falling or rolling sphere viscometry	0.604	0.614	0.648	0.707	0.787	0.888	1.023	1.2
293.15 K, 60000 kPa, Falling or rolling sphere viscometry	0.706	0.718	0.757	0.824	0.913	1.022	1.168	1.354
293.15 K, 80000 kPa, Falling or rolling sphere viscometry	0.817	0.832	0.875	0.951	1.047	1.162	1.316	1.509
293.15 K, 100000 kPa, Falling or rolling sphere viscometry	0.937	0.953	1.003	1.087	1.191	1.312	1.473	1.674
313.15 K, 100 kPa, Capillary tube (Ostwald / Ubbelohde) method	0.333	0.336	0.354	0.383	0.421	0.475	0.55	0.66
313.15 K, 20000 kPa, Falling or rolling sphere viscometry	0.408	0.413	0.429	0.464	0.508	0.567	0.65	0.766
313.15 K, 40000 kPa, Falling or rolling sphere viscometry	0.487	0.495	0.513	0.553	0.602	0.666	0.756	0.877
313.15 K, 60000 kPa, Falling or rolling sphere viscometry	0.57	0.579	0.599	0.644	0.699	0.768	0.864	0.989
313.15 K, 80000 kPa, Falling or rolling sphere viscometry	0.658	0.666	0.69	0.739	0.8	0.874	0.974	1.102
313.15 K, 100000 kPa, Falling or rolling sphere viscometry	0.751	0.758	0.786	0.838	0.906	0.984	1.088	1.217
333.15 K, 100 kPa, Capillary tube (Ostwald / Ubbelohde) method	0.276	0.274	0.282	0.299	0.325	0.361	0.409	0.484
333.15 K, 20000 kPa, Falling or rolling sphere viscometry	0.336	0.332	0.344	0.364	0.393	0.435	0.489	0.565
333.15 K, 40000 kPa, Falling or rolling sphere viscometry	0.402	0.4	0.414	0.436	0.469	0.515	0.571	0.651
333.15 K, 60000 kPa, Falling or rolling sphere viscometry	0.472	0.471	0.486	0.511	0.546	0.595	0.653	0.734
333.15 K, 80000 kPa, Falling or rolling sphere viscometry	0.546	0.544	0.56	0.589	0.623	0.677	0.735	0.816
333.15 K, 100000 kPa, Falling or rolling sphere viscometry	0.623	0.621	0.636	0.67	0.703	0.761	0.818	0.898
353.15 K, 100 kPa, Capillary tube (Ostwald / Ubbelohde) method	0.232	–	–	–	–	–	–	–
353.15 K, 20000 kPa, Falling or rolling sphere viscometry	0.289	0.282	0.286	0.298	0.316	0.341	0.374	0.423
353.15 K, 40000 kPa, Falling or rolling sphere viscometry	0.346	0.337	0.343	0.357	0.376	0.403	0.437	0.49
353.15 K, 60000 kPa, Falling or rolling sphere viscometry	0.401	0.394	0.401	0.412	0.434	0.464	0.501	0.556
353.15 K, 80000 kPa, Falling or rolling sphere viscometry	0.458	0.45	0.458	0.475	0.499	0.53	0.565	0.622
353.15 K, 100000 kPa, Falling or rolling sphere viscometry	0.521	0.513	0.522	0.539	0.565	0.599	0.631	0.69
